These results are taken from patent US12428430B2 (BRISTOL-MYERS SQUIBB COMPANY, priority 2018, dated 2025).

The target of assay [1] is T1, hLPA1 (Homo sapiens, UniProt Q92633). As to the kind of experiment: LPA1 functional antagonist assay (LPA-induced calcium flux in CHO cells overexpressing human LPA1). As to conditions: antagonist mode, inhibition of calcium flux induced by 10 nM LPA, read-out: hLPA1 IC50. In kind it is cell-based. Also noted: expressed in transfected cells; host or cells: Chinese hamster ovary (CHO) cells. Here is the method:
The effectiveness of compounds of the present invention as LPA1 inhibitors can be determined in an LPA1 functional antagonist assay as follows:
Chinese hamster ovary cells overexpressing human LPA1 were plated overnight (15,000 cells/well) in poly-D-lysine coated 384-well microplates (Greiner bio-one, Cat #781946) in DMEM/F12 medium (Gibco, Cat #11039). Following overnight culture, cells were loaded with calcium indicator dye (AAT Bioquest Inc, Cat #34601) for 30 minutes at 37° C. The cells were then equilibrated to room temperature for 30 minutes before the assay. Test compounds solubilized in DMSO were transferred to 384 well non-binding surface plates (Corning, Cat #3575) using the Labcyte Echo acoustic dispense and diluted with assay buffer [1×HBSS with calcium/magnesium (Gibco Cat #14025-092), 20 mM HEPES (Gibco Cat #15630-080) and 0.1% fatty acid free BSA (Sigma Cat #A9205)] to a final concentration of 0.5% DMSO. Diluted compounds were added to the cells by FDSS6000 (Hamamatsu) at final concentrations ranging from 0.08 nM to 5 μM. and were then incubated for 20 min at room temperature at which time LPA (Avanti Polar Lipids Cat #857130C) was added at final concentrations of 10 nM to stimulate the cells. The compound IC50 value was defined as the concentration of test compound which inhibited 50% of the calcium flux induced by LPA alone. IC50 values were determined by fitting data to a 4-parameter logistic equation (GraphPad Prism, San Diego Calif.).

The target of assay [2] is T1, hLPA1. As to the kind of experiment: hLPA1 Binding.
The test system of the next assay is nerve-injured mice. As to conditions: pretreatment; cited from earlier work.
The test system of assay [3] is human foetal lung fibroblasts. As to conditions: Tager et al. Nature Medicine 2008; cited from earlier work.
The subject of assay [4] is mouse epithelial renal cell line, MCT. As to conditions: co-treatment with LPA, MCT cells; cited from earlier work.
The next assay has as its system UUO mice. As to conditions: compared with LPA1 (−/−) mice; cited from earlier work.
Assay [5] has as its system pancreatic cancer cell lines. As to conditions: cited from earlier work.

By IC50 is commonly meant the concentration needed to halve the response being measured. For orientation: Ki means a dissociation constant, usually derived from enzyme kinetics or from competition with a known ligand.

T1 sequence (Q92633 whole entry): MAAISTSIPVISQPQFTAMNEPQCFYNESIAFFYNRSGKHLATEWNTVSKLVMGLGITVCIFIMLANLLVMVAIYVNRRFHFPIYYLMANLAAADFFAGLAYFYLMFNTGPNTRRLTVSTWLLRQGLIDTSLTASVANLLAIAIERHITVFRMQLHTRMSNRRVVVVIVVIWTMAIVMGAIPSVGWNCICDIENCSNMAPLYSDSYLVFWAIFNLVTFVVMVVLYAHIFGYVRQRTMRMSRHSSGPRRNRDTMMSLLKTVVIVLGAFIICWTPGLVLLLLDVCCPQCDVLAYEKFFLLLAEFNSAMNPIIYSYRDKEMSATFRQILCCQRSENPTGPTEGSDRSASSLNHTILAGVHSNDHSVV

Turning to `Cc1noc(-c2ccc(C34CCC(CC(=O)O)(CC3)CO4)cc2)c1NC(=O)O[C@H](C)c1ccccc1F` [Example 52, 2-(1-(4-(4-((((R)-1-(2-fluorophenyl)ethoxy)carbonyl)amino)-3-methyl-isoxazol-5-yl)phenyl)-2-oxabicyclo[2.2.2]octan-4-yl)acetic acid], the IC50 on hLPA1 [1] came to 0.134 µM. Same read-out and setting: as for `Cc1noc(-c2ccc(C34CCC(CC(=O)O)(CC3)CO4)cc2)c1COC(=O)N(C)C1CCCC1` [Example 53, 2-(1-(4-(4-(((cyclopentyl(methyl)carbamoyl)oxy)methyl)-3-methylisoxazol-5-yl)phenyl)-2-oxabicyclo[2.2.2]octan-4-yl)acetic acid], the figure is 2.55 µM; as for `Cc1noc(C23CCC(c4ccc(CC(=O)O)cc4)(CC2)OC3)c1NC(=O)O[C@H](C)c1ccccc1` [Example 54, (R)-2-(4-(4-(3-methyl-4-(((1-phenylethoxy)carbonyl)amino)isoxazol-5-yl)-2-oxabicyclo[2.2.2]octan-1-yl)phenyl)acetic acid], 0.088 µM.

With `Cc1noc(C23CCC(c4ccc(CC(=O)O)cc4)(CC2)OC3)c1NC(=O)O[C@H](C)C1CC1` [Example 55, (R)-2-(4-(4-(4-(((1-cyclopropyl-ethoxy)carbonyl)amino)-3-methyl-isoxazol-5-yl)-2-oxabicyclo[2.2.2]octan-1-yl)phenyl)acetic acid], the Ki on hLPA1 [2] was determined as 0.724 µM.

With `Cc1noc(C23CCC(c4ccc(CC(=O)O)cc4)(CC2)OC3)c1NC(=O)O[C@H](C)c1ccccc1Cl` [Example 56, (R)-2-(4-(4-(4-(((1-(2-chlorophenyl)ethoxy)carbonyl)amino)-3-methyl-isoxazol-5-yl)-2-oxabicyclo[2.2.2]octan-1-yl)phenyl)acetic acid], the IC50 on hLPA1 [1] stood at 0.093 µM. Regarding `Cc1noc(-c2ccc(C34CCC(CC(=O)O)(CC3)OC4)c(F)c2)c1NC(=O)O[C@H](C)c1ccccc1` [Example 57, 2-(4-(2-fluoro-4-(3-methyl-4-((((R)-1-phenylethoxy)carbonyl)amino)isoxazol-5-yl)phenyl)-2-oxabicyclo[2.2.2]octan-1-yl)acetic acid], at hLPA1 [1], the IC50 was 0.041 µM. On the same count and under the same terms, as for `Cc1noc(-c2ccc(C34CCC(CCC(=O)O)(CC3)CO4)cc2)c1NC(=O)O[C@H](C)c1ccccc1` [Example 58, 3-(1-(4-(3-methyl-4-((((R)-1-phenylethoxy)carbonyl)amino)isoxazol-5-yl)phenyl)-2-oxabicyclo[2.2.2]octan-4-yl)propanoic acid], the figure is 0.157 µM; as for `Cc1noc(-c2cccc(C34CCC(CC(=O)O)(CC3)OC4)c2)c1NC(=O)O[C@H](C)c1ccccc1Cl` [Example 59, 2-(4-(3-(4-((((R)-1-(2-chlorophenyl)ethoxy)carbonyl)amino)-3-methylisoxazol-5-yl)phenyl)-2-oxabicyclo[2.2.2]octan-1-yl)acetic acid], 0.095 µM. As to `C[C@@H](N)[C@H]1CC[C@H](C(=O)Nc2ccncc2)CC1` [Example Y-27632], the allodynia and hyperalgesia entry in the assay with nerve-injured mice was “completely abolished”. For the compound `Cc1noc(-c2ccc(CSCCC(=O)O)cc2)c1NC(=O)OC(C)c1ccccc1Cl` (centres unmarked) [Ki16425], the “chemotaxis of human foetal lung fibroblasts induced by BAL from IPF patients” value in assay [3] is given as “blocked”. Also, the “LPA-induced expression of the profibrotic cytokine CTGF” value in assay [4] is recorded as “almost completely suppressed”. For the same compound, in the assay with UUO mice, the “development of renal fibrosis in UUO mice” value was “closely resembled the profile of LPA1 (−/−) mice”. For the same compound, the “in vitro migration in response to LPA and ascites from pancreatic cancer patients” value in assay [5] (Yamada et al, J. Biol. Chem. 2004) is “effectively blocked”. Moreover, in assay [5] (highly peritoneal metastatic pancreatic cancer cell line), the “LPA-induced and ascites-induced invasion activity” value was “blocked”.
